One block for each compound: values may come before it.
How the values were obtained:
Type in all cases: physicochemical
[1] = VH-XRPD analysis / transitions of forms at varying relative humidity; conditions: dehydrated
Text: FIG. 19. The sample then reverts to the original form upon reaching 30% RH. […] Transitions of Forms of Compound A at varying RH.

[2] = Heating under N2 protection (VT-XRPD), form change
Method: Compound B Form A was obtained from an acetone system and the sample was air dried at RT. […] (peak temperature) before the possible overlapped peak with peak temperature at 156.3° C. (FIG. 12). Based on the integrals, the stoichiometric ratio of fumaric acid:freebase was determined to be 1.03. A peak of acetone was observed and approximately 0.49 molar acetone (4.4 wt %) was detected. The HPLC purity of Compound B Form A was determined to be 93.56 area %. […] Around 0.39 molar acetone (3.5 wt %) was still detected. One endotherm at 58.7° C. and an overlapped peak with peak temperature at 157.1° C. were still observed on the sample obtained after heating. The first endotherm might be caused by re-adsorption of moisture. Since ˜3.5 wt % acetone was still detected from NMR, Compound B Form A is expected to be an acetone/H2O co-solvate. […]

[3] = Form change before and after drying (XRPD); conditions: for Form change before and after drying: air dried at RT
Method: The wet sample was vacuum dried at RT for 3 hrs. […] A solid was obtained with a yield of 62.2%. […] (peak temperature). Based on the integrals in NMR spectrum, the stoichiometric ratio of adipic acid:freebase was determined to be 1.06. A peak of EtOAc was observed. Around 0.07 molar EtOAc (0.8 wt %) was detected, which was consistent with TGA weight loss.
(peak), and one small endotherm at 158.8° C. […] Based on the integrals, the stoichiometric ratio of adipic acid:freebase was determined to be 1.65.
(peak temperature). Based on the integrals, the stoichiometric ratio of adipic acid:freebase was determined to be 1.06. Peak of THF was observed. Around 0.17 molar THF (1.9 wt %) was detected, which was consistent with TGA weight loss.
Compound B Form A was obtained from an acetone system and the sample was air dried at RT. […] (peak temperature) before the possible overlapped peak with peak temperature at 156.3° C. (FIG. 12). Based on the integrals, the stoichiometric ratio of fumaric acid:freebase was determined to be 1.03. A peak of acetone was observed and approximately 0.49 molar acetone (4.4 wt %) was detected. The HPLC purity of Compound B Form A was determined to be 93.56 area %. […] Around 0.39 molar acetone (3.5 wt %) was still detected. One endotherm at 58.7° C. and an overlapped peak with peak temperature at 157.1° C. were still observed on the sample obtained after heating. The first endotherm might be caused by re-adsorption of moisture. Since ˜3.5 wt % acetone was still detected from NMR, Compound B Form A is expected to be an acetone/H2O co-solvate.
Compound C Form A was obtained from EtOAc system and the sample was air dried at RT. […] HPLC purity of Compound C Form A was determined to be 95.18 area %.

[4] = Slurry competition between Compound A Form A and B
Method: The suspensions were stirred at a speed of 750 rpm and tested by XRPD in transmission mode.

[5] = Approximate solubility at RT (stepwise solvent addition until visually dissolved)
Method: The solubility of starting material was estimated at RT in 20 solvents. For each experiment, approximately 2 mg of sample was added into a 3-mL glass vial. Solvents in Table 32 were then added stepwise (50, 50, 200, 700 μL) into the vials until the solids were dissolved visually or a total volume of 1 mL was reached.

[6] = Static storage at 25° C./97% RH and 40° C./75% RH; conditions: after 7 days
Method: Amorphous material of Compound A (mono adipate salt) was successfully prepared through freeze drying. Characterisation of the initial batch of samples were all shown to be amorphous by XRPD and the NMR's contained ca. 1.1 eq. adipic acid with varying quantities of residual solvent, except for acetonitrile/water (1:1) which contained no residual solvent. […] Static storage at 25° C./97% RH and 40° C./75% RH after 7 days were all shown to have deliquesced.

[7] = heating to 100° C. under N2 protection, cooled down and exposed to ambient conditions

Form after dehydration [1]: formed Compound A Form C
SMILES: C=CC(=O)N1CCN(c2nc(OC[C@@H]3CCCN3C)nc3c(F)c(-c4nc(N)cc(C)c4C(F)(F)F)c(Cl)cc23)[C@@H](C)C1 [Compound A Form D]

Form change after heating ([2]; heating to 100° C. under N2 protection, cooled down and exposed to ambient conditions, listed as Form A of Compound C): no form change was observed | Form change before and after drying [3]: No form change was observed
SMILES: C=CC(=O)N1CCN(c2nc(OC[C@@H]3CCCN3C)nc3c(F)c(-c4nc(N)cc(C)c4C(F)(F)F)c(Cl)cc23)[C@@H](C)C1 [Compound C Form A]

Form change after heating ([2]; heating to 90° C. under N2 protection): no form change was observed | Form change after drying ([3]; air drying at RT overnight): No form change was observed
SMILES: C=CC(=O)N1CCN(c2nc(OC[C@@H]3CCCN3C)nc3c(F)c(-c4nc(N)cc(C)c4C(F)(F)F)c(Cl)cc23)[C@@H](C)C1 [Compound A Form B]

Slurry competition result (XRPD form) ([4]; IPA, 5° C.): Compound A Form A | Slurry competition result (XRPD form) ([4]; IPA, 5° C., listed as Compound A Form A+B): turned to Compound A Form A | Slurry competition result (XRPD form) ([4]; IPA, −20° C.): Compound A Form A | Slurry competition result (XRPD form) ([4]; IPA, −20° C., listed as Compound A Form A+B): turned to Compound A Form A | Slurry competition result (XRPD form) ([4]; Toluene, 5 to RT (RT for 18 days)): Compound A Form A | Slurry competition result (XRPD form) ([4]; Toluene, 5 to RT (RT for 18 days), listed as Compound A Form A+B): Compound A Form A was observed
SMILES: C=CC(=O)N1CCN(c2nc(OC[C@@H]3CCCN3C)nc3c(F)c(-c4nc(N)cc(C)c4C(F)(F)F)c(Cl)cc23)[C@@H](C)C1.O=C(O)CCCCC(=O)O [Compound A Form A + B]
Slurry competition result (XRPD form) ([4]; Toluene, 5° C., after 5 days): a mixture of Compound A Form A+B was observed

Solubility ([5]; 1,4-Dioxane): S > 38.0 mg/mL | Solubility ([5]; 2-MeTHF): S > 40.0 mg/mL | Solubility ([5]; Acetone): S > 40.0 mg/mL | Solubility ([5]; Anisole): S > 38.0 mg/mL | Solubility ([5]; CPME): S > 40.0 mg/mL | Solubility ([5]; DCM): S > 38.0 mg/mL | Solubility ([5]; DMSO): S > 38.0 mg/mL | Solubility ([5]; EtOAc): S > 40.0 mg/mL | Solubility ([5]; H2O): S < 2.1 mg/mL | Solubility ([5]; IPAc): S > 40.0 mg/mL | Solubility ([5]; MEK): S > 46.0 mg/mL | Solubility ([5]; MIBK): S > 42.0 mg/mL | Solubility ([5]; MeOH): S > 42.0 mg/mL | Solubility ([5]; THF): S > 44.0 mg/mL | Solubility ([5]; Toluene): S > 40.0 mg/mL | Solubility ([5]; n-Heptane): S < 2.0 mg/mL
SMILES: C=CC(=O)N1CCN(c2nc(OC[C@@H]3CCCN3C)nc3c(F)c(-c4nc(N)cc(C)c4C(F)(F)F)c(Cl)cc23)[C@@H](C)C1 [starting material]

Form change after heating [2, 7]: no form change was observed | Form change before and after drying [3]: No form change was observed
SMILES: C=CC(=O)N1CCN(c2nc(OC[C@@H]3CCCN3C)nc3c(F)c(-c4nc(N)cc(C)c4C(F)(F)F)c(Cl)cc23)[C@@H](C)C1.O=C(O)/C=C/C(=O)O (atropisomer, axis not shown) [Compound B Form A]

Static storage observation ([6]; 25° C./97% RH): deliquesced | Static storage observation ([6]; 40° C./75% RH): deliquesced
SMILES: C=CC(=O)N1CCN(c2nc(OC[C@@H]3CCCN3C)nc3c(F)c(-c4nc(N)cc(C)c4C(F)(F)F)c(Cl)cc23)[C@@H](C)C1.O=C(O)CCCCC(=O)O [Amorphous material of Compound A]

Form change after heating [2, 7]: no form change was observed
SMILES: C=CC(=O)N1CCN(c2nc(OC[C@@H]3CCCN3C)nc3c(F)c(-c4nc(N)cc(C)c4C(F)(F)F)c(Cl)cc23)[C@@H](C)C1.CC(=O)O (atropisomer, axis not shown) [Compound F Form A]

Source: patent US12565485B2, “Solid forms of 1-((S)-4-((R)-7-(6-amino-4-methyl-3-(trifluoromethyl)pyridin-2-yl)-6-chloro-8-fluoro-2-(((s)-1-methylpyrrolidin-2-yl)methoxy)quinazolin-4-yl)-3-methylpiperazin-1-yl)prop-2-en-1-one” (Genentech, Inc., priority 2022, dated 2026)
